US7285642B2, “Composition and method for modulating dendritic cell-T cell interaction” (Katholieke Universiteit Nijmegen, priority 2000, dated 2007)

Legend:
adhesion of DC to ICAM-3 = assay: Fluorescent beads adhesion assay: adhesion of DC to ICAM-3Fc beads; type: cell-based, human; settings: 5 mM
Experimental: Exploiting a novel flowcytrometric adhesion assay involving ICAM-3-Fc chimera coated fluorescent beads (Geijtenbeek et al.), the capacity of DC, resting peripheral blood lymphocytes (PBL) and monocytes to bind to this integrin ligand was tested. […] Freshly isolated PBL, monocytes and DC were incubated for 30 min. at 37° C. with either ICAM-1Fc or ICAM-3Fc fluorescent beads. After washing, the percentage of cells that bound beads was determined by flowcytometry. • 1B: Adhesion of leukocytes to ICAM-3 after activation of β2-integrins. Binding of fluorescent ICAM-3Fc beads was measured after 30 min. at 37° C. in the presence of either PMA 980 nM) or the activating anti-β2-integrin antibody KIM185 (10 μg/ml). Inhibition of the LFA-1 specific adhesion after PMA activation was determined in the presence of the blocking anti-LFA-1 antibody NKI-L15 (20 μg/ml). • 1C: Adhesion of DC to ICAM-3 in the presence of blocking antibodies (20 μg/ml) against β2-integrins (NKI-L19), β1-integrin (AIIB2), ICAM-3 (CBR-IC3/1, CBR-IC3/2) or in the presence of EDTA (5 mM) or EGTA (5 mM). The adhesion was determined as described in FIG. 1A.
DC were cultured from monocytes in the presence of GM-CSF and IL-4. […] Adhesion was determined as described in FIG. 1A. […]

DC-SIGN [1] = target: T1, DC-SIGN (Homo sapiens, UniProt Q9NNX6); assay: Adhesion of COS7-DC-SIGN cells to ICAM-3 beads; type: cell-based; settings: 5 mM
T1 construct: expressed in transfected cells; host or cells: COS7 cells, transient transfection with pRc/CMV-DC-SIGN (DEAE dextran)
T1 sequence (Q9NNX6 1-404): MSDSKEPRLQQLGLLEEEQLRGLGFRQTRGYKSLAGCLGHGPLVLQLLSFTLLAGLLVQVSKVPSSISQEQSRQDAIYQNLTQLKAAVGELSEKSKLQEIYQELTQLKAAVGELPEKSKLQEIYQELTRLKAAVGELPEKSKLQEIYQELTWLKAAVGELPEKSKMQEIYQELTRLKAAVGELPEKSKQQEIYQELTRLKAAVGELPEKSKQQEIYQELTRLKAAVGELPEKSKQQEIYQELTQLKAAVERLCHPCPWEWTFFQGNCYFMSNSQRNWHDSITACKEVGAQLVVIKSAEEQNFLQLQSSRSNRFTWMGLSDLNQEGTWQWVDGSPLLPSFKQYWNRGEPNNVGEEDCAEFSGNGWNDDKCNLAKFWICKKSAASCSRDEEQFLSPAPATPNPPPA
Source text: RT-PCR analysis with primers based on the gp120-binding C-type lectin sequence, on RNA isolated from DC yielded a PCR product of the expected length of 1237 nt. The DC-specific PCR product was cloned and sequencing confirmed 100% identity with the human gp120-binding lectin (FIG. 3B). Flowcytometric analysis of COS7 cells, transfected with the cDNA encoding the placenta gp120-binding C-type lectin, unequivocally proves that the gp120 binding C-type lectin is indeed identical to DC-SIGN (FIG. 4A). […] COS7 cells were transfected and the adhesion was determined as described in FIG. 1A, respectively. Adhesion of COS7-DC-SIGN cells to ICAM-3 was measured in the presence of EGTA (5 mM) and blocking antibodies against DC-SIGN (AZN-D1), ICAM-3 (CBR-IC3/1, CBR-IC3/2) and β2 integrinds (AZN-L19). A representative experiment out of 3 is shown (SD<5%). About 30% of the transfected COS7 cells are stained with anti-DC-SIGN-antibody and therefore express DC-SIGN. […]
Carboxylate-modified TransFluorSpheres (488/645 nm, 1.0 μm; Molecular Probes, Eugene, Oreg.) were coated with ICAM-1 Fc and ICAM-3 Fc as described previously (Geijtenbeek et al., 1999 submitted). […] Adhesion was determined by measuring the percentage of cells, which have bound fluorescent beads, by flowcytometry using the FACScan (Becton and Dickinson & Co., Oxnard, Calif.).

DC-SIGN [2] = target: T1, DC-SIGN; assay: Binding of DC-SIGN to ICAM-2 and ICAM-3 expressing K562 cells (FIG. 8); type: cell-based

**Q.** `O=C(O)CN(CCN(CC(=O)O)CC(=O)O)CC(=O)O` [EDTA] was tested. Which “Inhibition of adhesion of DC to ICAM-3Fc fluorescent beads” value (adhesion of DC to ICAM-3) did it give?
**A.** completely blocked

**Q.** `O=C(O)CN(CCOCCOCCN(CC(=O)O)CC(=O)O)CC(=O)O` [EGTA] was tested. Which “Inhibition of adhesion of COS7-DC-SIGN cells to ICAM-3” value (DC-SIGN [1]) did it give?
**A.** blocks adhesion completely

**Q.** What about the “Inhibition of adhesion of DC to ICAM-3Fc fluorescent beads” value (adhesion of DC to ICAM-3) of the same molecule?
**A.** completely blocked

**Q.** For mannan, which “Inhibition of DC-SIGN binding to K562 cells expressing ICAM-2 or ICAM-3” value (DC-SIGN [2]) is on record?
**A.** can be inhibited
